The target in test [1] is T1, IDO1 enzyme in Hela cells (Homo sapiens, UniProt P14902).
T1 construct: recombinant human γ-interferon was added at a final concentration of 100 ng/mL to induce IDO1 expression; endogenous in cells; host or cells: Hela cells, induced with recombinant human γ-interferon
Briefly: hIDO1 cytological activity assay (kynurenine in Hela cells by LC-MS). The test is classed as cell-based. Conditions: Hela cells induced with 100 ng/mL recombinant human γ-interferon, 20 h, read-out: IC50 hIDO1 Cytoactive. As to the method:
The change of kynurenine in Hela cells was detected by the LC-MS method, and the IC50 value of the compound was used as an index, to evaluate the inhibitory effect of the compound on IDO1 enzyme.
A medium, trypsin and DPBS were pre-heated in a 37° C. water bath. The medium for cell culture was sucked out and washed with 10 mL of DPBS; then the pre-heated trypsin was added into the culture flask, and the flask was rotated to allow the trypsin to uniformly cover it, and then placed in a 37° C., 5% CO2 incubator and digested for 1-2 min; in each T150, cells were dispersed with 10-15 mL of medium, centrifuged at 800 rpm for 5 min, and then resuspended in 10 mL of medium; 1 mL of cell suspension was pipetted and the cells were counted with Vi-cell; Hela cells were diluted with medium to 5×10^5/mL, 80 μL of the solution was added to a 96-cell plate, and cultured at 37° C. for 5-6 h in a 5% CO2 incubator.
The compound was diluted to 1 mM in DMSO, and then diluted 3-fold in duplicate wells, with 9 gradients. 5 μL of the diluted solution of the compound in DMSO was added to the compound plate containing 95 μL of the medium, and mixed, followed by transferring 10 μL of the mixture to a cell plate.
10 μL of recombinant human γ-interferon was added at a final concentration of 100 ng/mL to induce IDO1 expression. The cells were incubated at 37° C. for 20 h in a 5% CO2 incubator. 4 μL of 5% (w/v) trichloroacetic acid was added thereto, mixed and incubated at 50° C. for 30 min. After centrifugation at 2400 rpm for 10 min, 40 μL of the supernatant was taken and placed in a 96-well V-bottom plate, and then a precipitant was added in the plate. After mixing, the mixture was centrifuged at 4000 rpm for 10 min. 100 μL of the supernatant was transferred to a new 96-well V-bottom plate. The content of kynurenine was determined by LC-MS.
The control wells having γ-interferon but no compound was set as 0% inhibition, and the control wells without Hela cell was set as 100% inhibition, and the IC50 value of the compound was calculated by analyzing the data with XLFit 5.

In test [2] the target is T2, recombinant human IDO1 enzyme (Homo sapiens, UniProt P14902).
T2 construct: purchased NTRC NTRC-hlDO-10K
The test is described as follows: In vitro hIDO1 enzyme activity test (NFK Green fluorescence). It is filed as biochemical. Conditions: recombinant human IDO1, L-tryptophan substrate, pH 6.5. In short, it runs like this:
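Recombinant human IDO1 diluted to 20 nM in pH 6.5 phosphate buffer with ascorbate, catalase and methylene blue, preincubated with compound 30 min at 23° C, then L-tryptophan added (400 μM solution) for 90 min. NFK Green developed 4 h at 37° C (Ex 400/Em 510 nm); IC50 from 10-point 3-fold series, no-enzyme wells as 100% inhibition.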

Test [3] concerns the target IDO1 (Mus musculus, UniProt P28776). The test is described as follows: In vivo pharmacodynamics of IDO1: Kyn level in lung and plasma of LPS-induced C57BL/6 mice.
Description: Prior to the experiment, 60 mg/kg sodium pentobarbital was injected into the abdominal cavity of the animals for anesthetizing. […] LPS was dissolved in PBS, and the dose is 25 μg/20 μL per animal. As a control, another 6 mice were received the same volume of PBS through the nasal cavity. Subsequently, the animals were housed as usual, and their plasma were collected at 25 h, 26 h, and 30 h after LPS/PBS induction, and the lung samples were collected at 26 h and 30 h (3 animals per a time point) and determined the kynurenine (Kyn) level.
Group 1, 40% polyethylene glycol 400 (PEG400) aqueous solution orally as a solvent control;
Group 2, 50 mg/kg NLG919 orally, formulated in 40% PEG400 aqueous solution;
Plasma were collected at 1 h, 2 h, 4 h and 6 h after the end of the last administration, and lung samples were collected at 2 h and 6 h (3 to 5 animals per a time point) and determined the Kyn level by the LC/MS method.

“Also recorded” adds a separate entry of the source. Where only a bound is given, the exact number is not on record here.

IDO1, sequence (P28776 whole entry): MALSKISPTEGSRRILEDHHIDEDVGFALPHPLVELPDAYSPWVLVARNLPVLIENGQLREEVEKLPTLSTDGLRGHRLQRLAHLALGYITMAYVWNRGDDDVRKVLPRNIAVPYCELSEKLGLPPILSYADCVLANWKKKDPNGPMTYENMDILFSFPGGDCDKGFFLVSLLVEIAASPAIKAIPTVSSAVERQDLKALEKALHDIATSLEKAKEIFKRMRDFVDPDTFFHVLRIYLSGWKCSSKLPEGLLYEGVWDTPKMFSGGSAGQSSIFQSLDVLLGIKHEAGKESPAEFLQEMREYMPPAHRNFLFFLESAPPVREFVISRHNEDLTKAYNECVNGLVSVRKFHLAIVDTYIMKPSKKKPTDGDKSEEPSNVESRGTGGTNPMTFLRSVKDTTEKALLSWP
T2 sequence (P14902 whole entry): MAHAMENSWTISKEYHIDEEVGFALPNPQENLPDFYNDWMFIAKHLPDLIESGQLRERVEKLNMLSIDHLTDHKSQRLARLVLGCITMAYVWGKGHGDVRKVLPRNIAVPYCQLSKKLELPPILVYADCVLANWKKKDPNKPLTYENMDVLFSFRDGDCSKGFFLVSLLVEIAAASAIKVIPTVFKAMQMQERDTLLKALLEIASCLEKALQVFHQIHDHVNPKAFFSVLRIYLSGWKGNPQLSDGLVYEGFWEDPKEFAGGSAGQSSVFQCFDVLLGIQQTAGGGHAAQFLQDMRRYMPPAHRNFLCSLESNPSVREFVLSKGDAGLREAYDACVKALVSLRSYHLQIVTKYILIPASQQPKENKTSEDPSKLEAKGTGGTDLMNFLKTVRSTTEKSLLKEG
T1 sequence (P14902 whole entry): as above

Turning to `OC(CC1c2sccc2-c2cncn21)C1CCCCC1` (single isomer, unassigned) [Example 7, cyclohexyl-2-(8H-thieno[3′,2′:3,4]pyrrolo[1,2-c]imidazol-8-yl)ethanol], the IC50 in test [1] came out at 5.08 nM; in test [2] it was 7.22 nM. In addition, in test [3] (50 mg/kg orally at 0, 12 h and 24 h after induction, plasma 1-6 h, lung 2 h and 6 h after last administration), the “in vivo activity of IDO1 / reduction of the Kyn level in lung and plasma” value was “effectively inhibited in vivo activity of IDO1 and caused reduction of the Kyn level in lung and plasma”. In test [3] (50 mg/kg orally, comparison with NLG919 at same dose, 50 mg/kg), the “degree of Kyn level reduction in lung and plasma compared to NLG919” value is “more significant than that of NLG919; also recorded: significantly reduced the Kyn level in lung and plasma”.
`c1cc2c(s1)C(CC1CCCCC1)n1cncc1-2` (single isomer, unassigned) [Example 16, 8-(cyclohexylmethyl)-8H-thieno[3,4]pyrrolo[1,5-a]imidazole]: the IC50 amounted to 911 nM in test [1] and 71 nM in test [2].
Taken in the same sequence, the figures for `FC1(F)CCC(CCC2c3sccc3-c3cncn32)CC1` (single isomer, unassigned) [Example 22, 8-(2-(4,4-difluorocyclohexyl)ethyl)-8H-thieno[3′,2′:3,4]pyrrolo[1,2-c]imidazole] were 212 nM and 23.1 nM.
Taken in the same sequence, the figures for `O[C@@H](C[C@@H]1c2sccc2-c2cncn21)C1CCOCC1` (single isomer, unassigned) [Example 28] were > 5000 nM and > 10000 nM.
The like results for `O[C@@H](C[C@H]1c2sccc2-c2cncn21)C1CCOCC1` (single isomer, unassigned) [Example 29] were, in that order, 117 nM and 51.6 nM.
For `FC1(F)CCC([C@H]2c3sccc3-c3cncn32)CC1` (single isomer, unassigned) [Example 41], the IC50 in test [1] amounted to 74.9 nM; in test [2], 48 nM.
Take `OCC1(C2c3sccc3-c3cncn32)CCCCC1` (single isomer, unassigned) [Example 42, [1-(8H-thieno[3,4]pyrrolo[1,5-a]imidazol-8-yl)cyclohexyl]methanol]: the results for the IC50 in test [1] and in test [2] were 779 nM and 253 nM, respectively.
`OC1CCCCC1C1c2sccc2-c2cncn21` (single isomer, unassigned) [Example 53, 2-(8H-thieno[3,4]pyrrolo[1,5-a]imidazol-8-yl)cyclohexanol]: the IC50 in test [1] stood at 377 nM; in test [2] it was 161 nM.
Taken in the same sequence, the figures for `FC1(F)[C@@H]2C[C@@H](C3c4sccc4-c4cncn43)C[C@@H]21` (single isomer, unassigned) [Example 62, 8-[6,6-difluoro-3-bicyclo[3.1.0]cyclohexyl]-8H-thieno[3,4]pyrrolo[1,5-a]imidazole (trans)] were 446 nM and 199 nM.
Take `FC1(F)[C@@H]2C[C@@H](C3c4sccc4-c4cncn43)C[C@@H]21` (single isomer, unassigned) [Example 63, 8-[6,6-difluoro-3-bicyclo[3.1.0]cyclohexyl]-8H-thieno[3,4]pyrrolo[1,5-a]imidazole (trans)]: the half-maximal inhibitory concentration (IC50) is > 5000 nM in test [1] and 8800 nM in test [2].
Consider `c1cc2c(s1)C(C1CCCCCC1)n1cncc1-2` (single isomer, unassigned) [Example 72, 8-cycloheptyl-8H-thieno[3,4]pyrrolo[1,5-a]imidazole], for which the figures for the IC50 in test [1] and in test [2] were 223 nM and 99.9 nM, respectively.
Regarding `c1cc2c(s1)C(C1CCCCCC1)n1cncc1-2` (single isomer, unassigned) [Example 73, 8-cycloheptyl-8H-thieno[3,4]pyrrolo[1,5-a]imidazole], the figures for the IC50 in test [1] and in test [2] were > 5000 nM and > 10000 nM, respectively.
As for `FC1(F)C2CC(C3c4sccc4-c4cncn43)CC21` (single isomer, unassigned) [Example 77, 8-(6,6-difluoro-3-bicyclo[3.1.0]cyclohexyl)-8H-thieno[3,4]pyrrolo[1,5-a]imidazole (cis)], the values for the IC50 in test [1] and in test [2] were 125 nM and 37 nM, respectively.
Taken in the same sequence, the figures for `OC1CCCCC1C1c2sccc2-c2cncn21` (single isomer, unassigned) [Example 85] were 159 nM and 27.2 nM.
Taken in the same sequence, the figures for `OC1CCC(C2c3sccc3-c3cncn32)CC1` (single isomer, unassigned) [Example 117, 4-(8H-thieno[3,4]pyrrolo[1,5-a]imidazol-8-yl)-cyclohexanol] were 891 nM and 215 nM.
Taken in the same sequence, the figures for `CC(C)(C(O)C1CCCCC1)C1c2sccc2-c2cncn21` (single isomer, unassigned) [Example 119, 1-cyclohexyl-2-methyl-2-(8H-thieno[3,4]pyrrolo[1,5-a]imidazol-8-yl)-propan-1-ol] were 1980 nM and 390 nM.
As to `OC(CC1c2ccsc2-c2cncn21)C1CCCCC1` (stereo not shown) [Example 4, 1-cyclohexyl-2-(4H-thieno[3,4]pyrrolo[1,5-a]imidazol-4-yl)ethanol], the IC50 in test [1] was determined as 613 nM; in test [2] it was 83.6 nM.
The like results for `FC1(CCC2c3sccc3-c3cncn32)CCCCC1` (stereo not shown) [Example 39, 8-(2-(1-fluorocyclohexyl)ethyl)-8H-thieno[3′,2′:3,4]pyrrolo[1,2-c]imidazole] were, in that order, 90.5 nM and 46 nM.
The like results for `O[C@@H](C[C@H]1c2sccc2-c2cncn21)C1CCC(F)(F)CC1` [Example 46, (1S)-1-(4,4-difluorocyclohexyl)-2-((S)-8H-thieno[3,4]pyrrolo[1,5-a]imidazol-8-yl)ethanol] were, in that order, 28 nM and 11.4 nM.

(Values after patent US10487088B2, “Tricyclic compound serving as immunomodulator” (Chia Tai Tianqing Pharmaceutical Group Co., Ltd., priority 2016, dated 2019).)
